Measurements taken from PMC11487905, “Dalbavancin-resistant Staphylococcus epidermidis in vivo selection following a prosthetic joint infection: phenotypic and genomic characterization” (JAC-Antimicrobial Resistance, 2024).
≈ marks a conversion by molar mass, not a printed value.

Columns and labels:
[1] = tested on: linezolid-resistant MDR S. epidermidis (LR-MDRSE) isolates; test: microbe, parasite or virus in culture; format: cell-based, Staphylococcus epidermidis; conditions: for Increase of MIC between isolates: STA1 (Day 24) to STA3 (Day 240)
Method: Isolates were identified by MALDI-TOF mass spectrometry (VITEK MS, bioMérieux, Marcy-l’Étoile, France). Antibiotic susceptibility testing was performed using the AST-P668 bioMérieux card using a VITEK XL automated system (bioMérieux). Dalbavancin, ceftaroline, delafloxacin, tigecycline and daptomycin MICs were determined using a 0.5 McFarland bacterial inoculum on Mueller–Hinton agar plates with gradient strips (Liofilchem, Roseto degli Abruzzi, Italy) incubated for 24 h at 35°C. Interpretation of the susceptibility was made according to the EUCAST 2022 criteria.

LR-MDRSE PJI = format: in vivo, patient
Method: A person underwent a revision of a medial unicompartmental knee arthroplasty to total knee arthroplasty (TKA) for progressive arthritis of the lateral joint.
It was subsequently decided to perform debridement, antibiotics and implant retention (DAIR) with a change of modular implants. […] A treatment shift to dalbavancin 1500 mg IV on Days 35, 49, 71 and 106, combined with doxycycline 200 mg/day for 3 months was initiated.
The evolution was considered unfavourable due to a loco-regional inflammatory syndrome with persistent chronic pain.
A revision of the knee was decided upon, with five bacteriological samples collected. As previously, they tested positive with the same LR-MDRSE strain (Day 371). Ceftaroline (1800 mg/day) and doxycycline (200 mg/day) combination treatment was administered for the next 12 weeks. […] His C-reactive protein level was <4 mg/L (reference range: <4 mg/L). However, suppressive doxycycline therapy was maintained (200 mg/day).

[2] = Dalbavancin therapeutic drug monitoring: plasma trough concentration and extrapolated fAUC0–24/MIC; format: in vivo, patient; conditions: for Plasma trough concentration: 1500 mg IV, LC-MS
Text: We therefore used this methodology for fAUC0–24 determination.

[3] = cited from earlier work
Method: Dalbavancin has a similar mechanism of action and spectrum as vancomycin but with increased potency, higher protein binding and an elimination half-life up to 60 times longer.[10] […] N ... || Because of the long-term duration, dalbavancin therapeutic drug monitoring was performed. Plasma trough concentrations were measured using a validated LC coupled with MS method (Acquity UPLC® BEH C18 and Acquity QDA, Waters, France). […] We therefo ... || Moreover, the clinical infections caused by biofilms poses a serious threat to public health. Staphylococcus spp. biofilms stand out as one of the most prevalent, especially in osteoarticular infection and PJI. […] Thus, new therapeutic strategies targeting biofilms and MDR bacteria are urgently needed.

S. aureus = conditions: seven isolates of S. aureus (including four vancomycin-intermediate strains); ref 14 (Lepak et al.); cited from earlier work
Text: fAUC0–24/MIC best correlates with in vivo efficacy of dalbavancin.[13]

[4] = Staphylococcus epidermidis, isolate STA1, Day 24, gradient strip, 0.5 McFarland, Mueller–Hinton agar, 24 h at 35°C
[5] = Staphylococcus epidermidis, isolate STA3, Day 240, gradient strip, 0.5 McFarland, Mueller–Hinton agar, 24 h at 35°C
[6] = ceftaroline 1800 mg/day combined with doxycycline 200 mg/day for 12 weeks after knee revision
[7] = after four injections of dalbavancin 1500 mg IV
[8] = Staphylococcus epidermidis, 576 h

CCO/N=C(\C(=O)N[C@@H]1C(=O)N2C(C(=O)[O-])=C(Sc3nc(-c4cc[n+](C)cc4)cs3)CS[C@H]12)c1nsc(N)n1 [Ceftaroline]
Susceptibility of the strain (in words) ([1]; STA1, Day 24): susceptible
Susceptibility of the strain (in words) ([1]; STA3, Day 240): susceptible
MIC [1, 4]: 1 µg/mL (≈ 1.65 µM)
MIC [1, 5]: 0.75 µg/mL (≈ 1.24 µM)
Clinical evolution under treatment (LR-MDRSE PJI; [6]): favourable
Tolerability of treatment (LR-MDRSE PJI; [6]): well tolerated

CN[C@H]1C(=O)N[C@@H]2Cc3ccc(cc3)Oc3cc4cc(c3O[C@@H]3O[C@H](C(=O)O)[C@@H](O)[C@H](O)[C@H]3NC(=O)CCCCCCCCC(C)C)Oc3ccc(cc3Cl)[C@@H](O)[C@@H]3NC(=O)[C@H](NC(=O)[C@@H]4NC(=O)[C@@H](NC2=O)c2cc(cc(O)c2Cl)Oc2cc1ccc2O)c1ccc(O)c(c1)-c1c(O[C@H]2O[C@H](CO)[C@@H](O)[C@H](O)[C@@H]2O)cc(O)cc1[C@@H](C(=O)NCCCN(C)C)NC3=O [Dalbavancin]
Increase of MIC between isolates [1, 7]: 4 fold
Susceptibility of the strain (in words) ([1]; STA1, Day 24): susceptible
Susceptibility of the strain (in words) ([1]; STA3, Day 240): resistant
MIC ([1]; isolate STA1, Day 24, gradient strip, 0.5 McFarland, Mueller–Hinton agar, 24 h at 35°C): 0.032 µg/mL (≈ 0.0176 µM)
MIC ([1]; isolate STA3, Day 240, gradient strip, 0.5 McFarland, Mueller–Hinton agar, 24 h at 35°C): 0.5 µg/mL (≈ 0.275 µM)
Plasma trough concentration ([2]; Day 49, 14 days after the last dose): 18 mg/L
Calculated fAUC0–24/MIC ratio ([2]; Day 49, assuming an MIC of 0.032 mg/L, extrapolated from single trough, 93% protein bound): 945
Calculated fAUC0–24/MIC ratio ([2]; Day 49, assuming an MIC of 0.5 mg/L): 60
Plasma trough concentration ([2]; Day 71, 22 days after the last dose): 23.6 mg/L
Calculated fAUC0–24/MIC ratio ([2]; Day 71, assuming an MIC of 0.032 mg/L): 1239
Calculated fAUC0–24/MIC ratio ([2]; Day 71, assuming an MIC of 0.5 mg/L): 79
Plasma trough concentration ([2]; Day 106, 35 days after the last dose): 14.6 mg/L
Calculated fAUC0–24/MIC ratio ([2]; Day 106, assuming an MIC of 0.032 mg/L): 766.5
Calculated fAUC0–24/MIC ratio ([2]; Day 106, assuming an MIC of 0.5 mg/L): 49
Elimination half-life relative to vancomycin [3]: up to 60 times longer
Bound to plasma proteins ([3]; plasma): 93%
Half-life ([3]; prolonged half-life): about 14 days
fAUC0–24/MIC value for 1-log kill (S. aureus): 53.3
fAUC0–24/MIC value for 2-log kill (S. aureus): 111.1
fAUC0–24/MIC value for net stasis (S. aureus): 27.1
Clinical outcome of treatment (LR-MDRSE PJI; dalbavancin 1500 mg IV on Days 35, 49, 71 and 106, combined with doxycycline 200 mg/day for 3 months, after DAIR): treatment failure

CCCCCCCCCC(=O)N[C@@H](Cc1c[nH]c2ccccc12)C(=O)N[C@H](CC(N)=O)C(=O)N[C@@H](CC(=O)O)C(=O)N[C@@H]1C(=O)NCC(=O)N[C@@H](CCCN)C(=O)N[C@@H](CC(=O)O)C(=O)N[C@H](C)C(=O)N[C@@H](CC(=O)O)C(=O)NCC(=O)N[C@H](CO)C(=O)N[C@@H]([C@H](C)CC(=O)O)C(=O)N[C@@H](CC(=O)c2ccccc2N)C(=O)O[C@@H]1C [Daptomycin]
Increase of MIC between isolates [1, 7]: 6 fold

Nc1nc(-n2cc(C(=O)O)c(=O)c3cc(F)c(N4CC(O)C4)c(Cl)c32)c(F)cc1F [Delafloxacin]
MIC [1, 4]: 1 µg/mL (≈ 2.27 µM)
MIC [1, 5]: 8 µg/mL (≈ 18.2 µM)

CC[C@H]1OC(=O)[C@H](C)[C@@H](O[C@H]2C[C@@](C)(OC)[C@@H](O)[C@H](C)O2)[C@H](C)[C@@H](O[C@@H]2O[C@H](C)C[C@H](N(C)C)[C@H]2O)[C@](C)(O)C[C@@H](C)C(=O)[C@H](C)[C@@H](O)[C@]1(C)O [Erythromycin]
MIC ([1]; Staphylococcus epidermidis): > 4 µg/mL
MIC [1, 8]: > 4 µg/mL

C[C@@H]1O[C@@H]1P(=O)(O)O [Fosfomycin]
MIC ([1]; Staphylococcus epidermidis): > 64 µg/mL
MIC [1, 8]: > 64 µg/mL

CC(=O)O[C@H]1C[C@@]2(C)[C@@H](C[C@@H](O)[C@H]3[C@@]4(C)CC[C@@H](O)[C@@H](C)[C@@H]4CC[C@@]32C)/C1=C(\CCC=C(C)C)C(=O)O [Fusidic acid]
MIC ([1]; Staphylococcus epidermidis): > 4 µg/mL
MIC [1, 8]: > 4 µg/mL

CNC(C)C1CCC(N)C(OC2C(N)CC(N)C(OC3OCC(C)(O)C(NC)C3O)C2O)O1 (centres unmarked) [Gentamicin]
MIC ([1]; Staphylococcus epidermidis): > 8 µg/mL
MIC [1, 8]: > 8 µg/mL

CCC[C@@H]1C[C@@H](C(=O)N[C@@H]([C@H]2O[C@H](SC)[C@H](O)[C@@H](O)[C@H]2O)[C@@H](C)O)N(C)C1 [Lincomycin]
MIC ([1]; Staphylococcus epidermidis): > 8 µg/mL
MIC [1, 8]: > 8 µg/mL

CC(=O)NC[C@H]1CN(c2ccc(N3CCOCC3)c(F)c2)C(=O)O1 [Linezolid]
Susceptibility of the strain (in words) ([1]; STA1, Day 24): resistant
MIC ([1]; Staphylococcus epidermidis): > 4 µg/mL
MIC [1, 8]: > 4 µg/mL

CC1COc2c(N3CCN(C)CC3)c(F)cc3c(=O)c(C(=O)O)cn1c23 (centres unmarked) [Ofloxacin]
MIC ([1]; Staphylococcus epidermidis): > 4 µg/mL
MIC [1, 8]: > 4 µg/mL

Cc1onc(-c2ccccc2)c1C(=O)N[C@@H]1C(=O)N2[C@@H]1SC(C)(C)[C@@H]2C(=O)O [Oxacillin]
MIC ([1]; Staphylococcus epidermidis): > 2 µg/mL
MIC [1, 8]: > 2 µg/mL

CO[C@H]1/C=C/O[C@@]2(C)Oc3c(C)c(O)c4c(O)c(c(/C=N/N5CCN(C)CC5)c(O)c4c3C2=O)NC(=O)/C(C)=C\C=C\[C@H](C)[C@H](O)[C@@H](C)[C@@H](O)[C@@H](C)[C@H](OC(C)=O)[C@@H]1C [Rifampin]
Susceptibility of the strain (in words) ([1]; STA1, Day 24): resistant
MIC ([1]; Staphylococcus epidermidis): > 2 µg/mL
MIC [1, 8]: > 2 µg/mL

CN(C)c1cc(NC(=O)CNC(C)(C)C)c(O)c2c1C[C@H]1C[C@H]3[C@H](N(C)C)C(O)=C(C(N)=O)C(=O)[C@@]3(O)C(O)=C1C2=O [Tigecycline]
MIC [1, 4]: 0.19 µg/mL (≈ 0.324 µM)
MIC [1, 5]: 0.25 µg/mL (≈ 0.427 µM)

NC[C@H]1O[C@H](O[C@H]2[C@H](O)[C@@H](O[C@H]3O[C@H](CO)[C@@H](O)[C@H](N)[C@H]3O)[C@H](N)C[C@@H]2N)[C@H](N)C[C@@H]1O [Tobramycin]
MIC ([1]; Staphylococcus epidermidis): > 8 µg/mL
MIC [1, 8]: > 8 µg/mL

CN[C@H](CC(C)C)C(=O)N[C@H]1C(=O)N[C@@H](CC(N)=O)C(=O)N[C@H]2C(=O)N[C@H]3C(=O)N[C@H](C(=O)N[C@H](C(=O)O)c4cc(O)cc(O)c4-c4cc3ccc4O)[C@H](O)c3ccc(c(Cl)c3)Oc3cc2cc(c3O[C@@H]2O[C@H](CO)[C@@H](O)[C@H](O)[C@H]2O[C@H]2C[C@](C)(N)[C@H](O)[C@H](C)O2)Oc2ccc(cc2Cl)[C@H]1O [Vancomycin]
Increase of MIC between isolates [1]: > 5 fold

COc1cccc(OC)c1C(=O)N[C@@H]1C(=O)N2[C@@H]1SC(C)(C)[C@@H]2C(=O)O [methicillin]
Susceptibility of the strain (in words) ([1]; STA1, Day 24): resistant
